From patent US20040063662A1, “Selenophene anti-tumor agents” (priority 1996, published 2004)

Experiments:
SK-MEL-5 = test: NCI human tumor cell panel: SK-MEL-5 (Melanoma); format: cell-based; details: SK-MEL-5, Melanoma
HOP-62 = test: NCI human tumor cell panel: HOP-62 (Non-Small Cell Lung Cancer); format: cell-based; details: HOP-62, Non-Small Cell Lung Cancer
IGROV1 = test: NCI human tumor cell panel: IGROV1 (Ovarian Cancer); format: cell-based; details: IGROV-1, IGROV1, Ovarian Cancer
MCF7 = test: NCI human tumor cell panel: MCF7 (Breast Cancer); format: cell-based; details: MCF7, Breast Cancer
MDA-N = test: NCI human tumor cell panel: MDA-N (Breast Cancer); format: cell-based; details: Breast Cancer
OVCAR-8 = test: NCI human tumor cell panel: OVCAR-8 (Ovarian Cancer); format: cell-based; details: OVCAR-8, Ovarian Cancer
SW-620 = test: NCI human tumor cell panel: SW-620 (Colon Cancer); format: cell-based; details: SW-620, Colon Cancer
MDA-MB-435 = test: NCI human tumor cell panel: MDA-MB-435 (Breast Cancer); format: cell-based; details: MDA-MB-435, Breast Cancer
SNB-75 = test: NCI human tumor cell panel: SNB-75 (CNS Cancer); format: cell-based; details: SNB-75, CNS Cancer
SK-MEL-2 = test: NCI human tumor cell panel: SK-MEL-2 (Melanoma); format: cell-based; details: SK-MEL-2, Melanoma
CCRF-CEM = test: NCI human tumor cell panel: CCRF-CEM (Leukemia); format: cell-based; details: Leukemia
SF-295 = test: NCI human tumor cell panel: SF-295 (CNS Cancer); format: cell-based; details: SF-295, CNS Cancer
SF-539 = test: NCI human tumor cell panel: SF-539 (CNS Cancer); format: cell-based; details: SF-539, CNS Cancer
HOP-92 = test: NCI human tumor cell panel: HOP-92 (Non-Small Cell Lung Cancer)
OVCAR-4 = test: NCI human tumor cell panel: OVCAR-4 (Ovarian Cancer); format: cell-based; details: OVCAR-4, Ovarian Cancer
786-0 = test: NCI human tumor cell panel: 786-0 (Renal Cancer); format: cell-based; details: 786-0, Renal Cancer
UACC-62 = test: NCI human tumor cell panel: UACC-62 (Melanoma); format: cell-based; details: UACC-62, Melanoma
UO-31 = test: NCI human tumor cell panel: UO-31 (Renal Cancer); format: cell-based; details: UO-31, Renal Cancer
SR = test: NCI human tumor cell panel: SR (Leukemia); format: cell-based; details: Leukemia
RPMI-8226 = test: NCI human tumor cell panel: RPMI-8226 (Leukemia); format: cell-based; details: RPMI-8226, Leukemia
MCF7/ADR-RES = test: NCI human tumor cell panel: MCF7/ADR-RES (Breast Cancer); format: cell-based; details: Breast Cancer
UACC-257 = test: NCI human tumor cell panel: UACC-257 (Melanoma); format: cell-based; details: UACC-257, Melanoma
NCI-H23 = test: NCI human tumor cell panel: NCI-H23 (Non-Small Cell Lung Cancer); format: cell-based; details: NCI-H23, Non-Small Cell Lung Cancer
OVCAR-5 = test: NCI human tumor cell panel: OVCAR-5 (Ovarian Cancer); format: cell-based; details: OVCAR-5, Ovarian Cancer
SN12C = test: NCI human tumor cell panel: SN12C (Renal Cancer); format: cell-based; details: Renal Cancer
HS 578T = test: NCI human tumor cell panel: HS 578T (Breast Cancer); format: cell-based; details: Breast Cancer
BT-549 = test: NCI human tumor cell panel: BT-549 (Breast Cancer); format: cell-based; details: BT-549, Breast Cancer
DU-145 = test: NCI human tumor cell panel: DU-145 (Prostate Cancer); format: cell-based; details: DU-145, Prostate Cancer
A498 = test: NCI human tumor cell panel: A498 (Renal Cancer); format: cell-based; details: A498, Renal Cancer
NCI-H460 = test: NCI human tumor cell panel: NCI-H460 (Non-Small Cell Lung Cancer); format: cell-based; details: NCI-H460, Non-Small Cell Lung Cancer
M14 = test: NCI human tumor cell panel: M14 (Melanoma); format: cell-based; details: M14, Melanoma
LOX IMVI = test: NCI human tumor cell panel: LOX IMVI (Melanoma); format: cell-based; details: Melanoma
[1] = read-out: Log10 GI50 (converted)
[2] = read-out: Log10 TGI (converted)

Structure (SMILES): O=Cc1ccc(-c2ccc(-c3ccc(C=O)[se]3)[se]2)[se]1 [NSC 675245]
- GI50 (SK-MEL-5; [1]): 72.4 µM
- IC (TGI) (SK-MEL-5; [2]): > 100 µM
- GI50 (HOP-62; [1]): 51.3 µM
- IC (TGI) (HOP-62; [2]): > 100 µM
- GI50 (IGROV1; [1]): 67.6 µM
- IC (TGI) (IGROV1; [2]): 25.7 µM
- GI50 (MCF7; [1]): 1.48 µM
- IC (TGI) (MCF7; [2]): > 100 µM
- GI50 (MDA-N; [1]): > 100 µM
- IC (TGI) (MDA-N; [2]): > 100 µM
- GI50 (OVCAR-8; [1]): > 100 µM
- IC (TGI) (OVCAR-8; [2]): > 100 µM
- GI50 (SW-620; [1]): 4.17 µM
- IC (TGI) (SW-620; [2]): > 100 µM
- GI50 (MDA-MB-435; [1]): > 100 µM
- IC (TGI) (MDA-MB-435; [2]): > 100 µM
- GI50 (SNB-75; [1]): 10 µM
- IC (TGI) (SNB-75; [2]): > 100 µM
- GI50 (SK-MEL-2; [1]): > 100 µM
- IC (TGI) (SK-MEL-2; [2]): > 100 µM
- GI50 (CCRF-CEM; [1]): > 100 µM
- IC (TGI) (CCRF-CEM; [2]): > 100 µM
- GI50 (SF-295; [1]): 49 µM
- IC (TGI) (SF-295; [2]): > 100 µM
- GI50 (SF-539; [1]): > 100 µM
- IC (TGI) (SF-539; [2]): > 100 µM
- GI50 (HOP-92; HOP-92, read-out: Log10 GI50 (converted)): > 100 µM
- IC (TGI) (HOP-92; HOP-92, read-out: Log10 TGI): > 100 µM
- GI50 (OVCAR-4; [1]): 2.63 µM
- IC (TGI) (OVCAR-4; [2]): > 100 µM
- GI50 (786-0; [1]): 67.6 µM
- IC (TGI) (786-0; [2]): > 100 µM
- GI50 (UACC-62; [1]): 0.0646 µM
- IC (TGI) (UACC-62; [2]): > 100 µM
- GI50 (UO-31; [1]): > 100 µM
- IC (TGI) (UO-31; [2]): > 100 µM
- GI50 (SR; [1]): > 100 µM
- IC (TGI) (SR; [2]): > 100 µM
- GI50 (RPMI-8226; [1]): > 100 µM
- IC (TGI) (RPMI-8226; read-out: Log10 TGI): > 100 µM
- GI50 (MCF7/ADR-RES; [1]): > 100 µM
- IC (TGI) (MCF7/ADR-RES; [2]): > 100 µM
- GI50 (UACC-257; [1]): 0.324 µM
- IC (TGI) (UACC-257; [2]): 0.912 µM
- GI50 (NCI-H23; [1]): > 100 µM
- IC (TGI) (NCI-H23; [2]): > 100 µM
- GI50 (OVCAR-5; [1]): 0.776 µM
- IC (TGI) (OVCAR-5; [2]): > 100 µM
- GI50 (SN12C; [1]): > 100 µM
- IC (TGI) (SN12C; [2]): > 100 µM
- GI50 (HS 578T; [1]): 87.1 µM
- IC (TGI) (HS 578T; [2]): > 100 µM
- GI50 (BT-549; [1]): > 100 µM
- IC (TGI) (BT-549; [2]): > 100 µM
- GI50 (DU-145; [1]): > 100 µM
- IC (TGI) (DU-145; [2]): > 100 µM
- GI50 (A498; [1]): 0.309 µM
- IC (TGI) (A498; [2]): 0.891 µM
- GI50 (NCI-H460; [1]): 1.78 µM
- IC (TGI) (NCI-H460; [2]): > 100 µM
- GI50 (M14; [1]): > 100 µM
- IC (TGI) (M14; [2]): > 100 µM
- GI50 (LOX IMVI; [1]): > 100 µM
- IC (TGI) (LOX IMVI; [2]): > 100 µM
